PubChem BioAssay (NCI)
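Following 48 hours of exposure in 96-well plates, responses at five concentrations were used to interpolate endpoints linearly. Abbreviation: GI50, concentration required for 50% inhibition of growth. TGI: total growth inhibition.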

Legend:
Experiment in all cases: growth of human tumour cells (NCI), 48 h
SR leukemia = system: SR leukemia
SNB-75 CNS = system: SNB-75 CNS
NCI-H23 lung = system: NCI-H23 lung
SN12C renal = system: SN12C renal
COLO 205 colon = system: COLO 205 colon
SNB-78 CNS = system: SNB-78 CNS
OVCAR-3 ovarian = system: OVCAR-3 ovarian
K-562 leukemia = system: K-562 leukemia
UACC-257 melanoma = system: UACC-257 melanoma
NCI/ADR-RES ovarian = system: NCI/ADR-RES ovarian
MOLT-4 leukemia = system: MOLT-4 leukemia
MCF7 breast = system: MCF7 breast
NCI-H226 lung = system: NCI-H226 lung
UO-31 renal = system: UO-31 renal
HS 578T breast = system: HS 578T breast
OVCAR-4 ovarian = system: OVCAR-4 ovarian
RXF 393 renal = system: RXF 393 renal
BT-549 breast = system: BT-549 breast
M19-MEL melanoma = system: M19-MEL melanoma
SF-295 CNS = system: SF-295 CNS
HCT-116 colon = system: HCT-116 colon
KM20L2 colon = system: KM20L2 colon
SK-MEL-28 melanoma = system: SK-MEL-28 melanoma
UACC-62 melanoma = system: UACC-62 melanoma
A498 renal = system: A498 renal
SF-539 CNS = system: SF-539 CNS
SNB-19 CNS = system: SNB-19 CNS
XF 498 CNS = system: XF 498 CNS
DMS 114 small cell lung = system: DMS 114 small cell lung
HCC-2998 colon = system: HCC-2998 colon
TK-10 renal = system: TK-10 renal
CAKI-1 renal = system: CAKI-1 renal
IGROV1 ovarian = system: IGROV1 ovarian
LOX IMVI melanoma = system: LOX IMVI melanoma
HT29 colon = system: HT29 colon
OVCAR-5 ovarian = system: OVCAR-5 ovarian
ACHN renal = system: ACHN renal
SK-MEL-5 melanoma = system: SK-MEL-5 melanoma
EKVX NSCLC = system: EKVX NSCLC
RXF-631 renal = system: RXF-631 renal
A549 NSCLC = system: A549 NSCLC
U251 CNS = system: U251 CNS
DU-145 prostate = system: DU-145 prostate
DLD-1 colon = system: DLD-1 colon
OVCAR-8 ovarian = system: OVCAR-8 ovarian
SF-268 CNS = system: SF-268 CNS
HOP-92 NSCLC = system: HOP-92 NSCLC
RPMI-8226 leukemia = system: RPMI-8226 leukemia
M14 melanoma = system: M14 melanoma
NCI-H460 lung = system: NCI-H460 lung
MDA-MB-231 breast = system: MDA-MB-231 breast
SK-MEL-2 melanoma = system: SK-MEL-2 melanoma
786-0 renal = system: 786-0 renal
MDA-MB-435 = system: MDA-MB-435
CCRF-CEM leukemia = system: CCRF-CEM leukemia
T-47D breast = system: T-47D breast
PC-3 prostate = system: PC-3 prostate
SK-OV-3 ovarian = system: SK-OV-3 ovarian
KM12 colon = system: KM12 colon
LXFL 529 NSCLC = system: LXFL 529 NSCLC
NCI-H522 lung = system: NCI-H522 lung
HL-60(TB) leukemia = system: HL-60(TB) leukemia
HCT-15 colon = system: HCT-15 colon
SW-620 colon = system: SW-620 colon
HOP-62 NSCLC = system: HOP-62 NSCLC
MALME-3M melanoma = system: MALME-3M melanoma
DMS 273 small cell lung = system: DMS 273 small cell lung

**Q.** Which results are given for `CN(C)CCONC(=O)C12CC3CC(CC(C3)C1)C2`?
**A.** TGI (SR leukemia): > 100 µM; TGI (SNB-75 CNS): > 100 µM; TGI (NCI-H23 lung): > 100 µM; TGI (SN12C renal): > 100 µM; TGI (COLO 205 colon): > 100 µM; TGI (SNB-78 CNS): 69.2 µM; TGI (OVCAR-3 ovarian): > 100 µM; TGI (K-562 leukemia): > 100 µM; TGI (UACC-257 melanoma): > 100 µM; GI50 (NCI/ADR-RES ovarian): > 100 µM; TGI (NCI/ADR-RES ovarian): > 100 µM; TGI (MOLT-4 leukemia): > 100 µM; GI50 (MCF7 breast): > 100 µM; TGI (MCF7 breast): > 100 µM; TGI (NCI-H226 lung): > 100 µM; TGI (UO-31 renal): > 100 µM; GI50 (HS 578T breast): > 100 µM; TGI (HS 578T breast): > 100 µM; GI50 (OVCAR-4 ovarian): > 100 µM; TGI (OVCAR-4 ovarian): > 100 µM; TGI (RXF 393 renal): > 100 µM; GI50 (BT-549 breast): > 100 µM; TGI (BT-549 breast): > 100 µM; TGI (M19-MEL melanoma): > 100 µM; TGI (SF-295 CNS): > 100 µM; TGI (HCT-116 colon): > 100 µM; TGI (KM20L2 colon): > 100 µM; TGI (SK-MEL-28 melanoma): > 100 µM; TGI (UACC-62 melanoma): > 100 µM; TGI (A498 renal): > 100 µM; TGI (SF-539 CNS): > 100 µM; TGI (SNB-19 CNS): > 100 µM; TGI (XF 498 CNS): > 100 µM; TGI (DMS 114 small cell lung): > 100 µM; GI50 (HCC-2998 colon): > 100 µM; TGI (HCC-2998 colon): > 100 µM; TGI (TK-10 renal): > 100 µM; TGI (CAKI-1 renal): > 100 µM; TGI (IGROV1 ovarian): > 100 µM; TGI (LOX IMVI melanoma): > 100 µM; TGI (HT29 colon): > 100 µM; TGI (OVCAR-5 ovarian): > 100 µM; TGI (ACHN renal): > 100 µM; TGI (SK-MEL-5 melanoma): > 100 µM; TGI (EKVX NSCLC): > 100 µM; TGI (RXF-631 renal): > 100 µM; TGI (A549 NSCLC): > 100 µM; TGI (U251 CNS): > 100 µM; GI50 (DU-145 prostate): > 100 µM; TGI (DU-145 prostate): > 100 µM; TGI (DLD-1 colon): > 100 µM; TGI (OVCAR-8 ovarian): > 100 µM; TGI (SF-268 CNS): > 100 µM; TGI (HOP-92 NSCLC): > 100 µM; TGI (RPMI-8226 leukemia): > 100 µM; TGI (M14 melanoma): > 100 µM; TGI (NCI-H460 lung): > 100 µM; GI50 (MDA-MB-231 breast): > 100 µM; TGI (MDA-MB-231 breast): > 100 µM; TGI (SK-MEL-2 melanoma): > 100 µM; TGI (786-0 renal): > 100 µM; GI50 (MDA-MB-435): > 100 µM; TGI (MDA-MB-435): > 100 µM; TGI (CCRF-CEM leukemia): > 100 µM; GI50 (T-47D breast): > 100 µM; TGI (T-47D breast): > 100 µM; GI50 (PC-3 prostate): > 100 µM; TGI (PC-3 prostate): > 100 µM; TGI (SK-OV-3 ovarian): > 100 µM; TGI (KM12 colon): > 100 µM; TGI (LXFL 529 NSCLC): > 100 µM; TGI (NCI-H522 lung): > 100 µM; TGI (HL-60(TB) leukemia): > 100 µM; TGI (HCT-15 colon): > 100 µM; GI50 (SW-620 colon): > 100 µM; TGI (SW-620 colon): > 100 µM; TGI (HOP-62 NSCLC): > 100 µM

**Q.** Which results are given for `CCC1=CCN(c2ccc(C)cc2)OC1c1ccc(OC)cc1` (configuration not stated)?
**A.** TGI (SR leukemia): > 100 µM; TGI (SNB-75 CNS): > 100 µM; TGI (NCI-H23 lung): > 100 µM; TGI (SN12C renal): > 100 µM; TGI (COLO 205 colon): > 100 µM; TGI (SNB-78 CNS): > 100 µM; TGI (OVCAR-3 ovarian): > 100 µM; TGI (K-562 leukemia): > 100 µM; TGI (UACC-257 melanoma): > 100 µM; TGI (MOLT-4 leukemia): > 100 µM; TGI (NCI-H226 lung): > 100 µM; TGI (UO-31 renal): > 100 µM; TGI (OVCAR-4 ovarian): > 100 µM; TGI (RXF 393 renal): > 100 µM; TGI (MALME-3M melanoma): > 100 µM; TGI (M19-MEL melanoma): > 100 µM; TGI (SF-295 CNS): > 100 µM; TGI (HCT-116 colon): > 100 µM; TGI (KM20L2 colon): > 100 µM; TGI (SK-MEL-28 melanoma): > 100 µM; TGI (UACC-62 melanoma): > 100 µM; TGI (SF-539 CNS): > 100 µM; TGI (SNB-19 CNS): > 100 µM; TGI (DMS 273 small cell lung): > 100 µM; TGI (XF 498 CNS): > 100 µM; TGI (DMS 114 small cell lung): > 100 µM; TGI (HCC-2998 colon): > 100 µM; TGI (TK-10 renal): > 100 µM; TGI (CAKI-1 renal): > 100 µM; TGI (IGROV1 ovarian): > 100 µM; TGI (LOX IMVI melanoma): > 100 µM; TGI (HT29 colon): > 100 µM; TGI (OVCAR-5 ovarian): > 100 µM; TGI (ACHN renal): > 100 µM; TGI (EKVX NSCLC): > 100 µM; TGI (RXF-631 renal): > 100 µM; TGI (A549 NSCLC): > 100 µM; TGI (U251 CNS): > 100 µM; TGI (DLD-1 colon): > 100 µM; TGI (OVCAR-8 ovarian): > 100 µM; TGI (SF-268 CNS): > 100 µM; TGI (RPMI-8226 leukemia): > 100 µM; TGI (M14 melanoma): > 100 µM; TGI (NCI-H460 lung): > 100 µM; TGI (SK-MEL-2 melanoma): > 100 µM; TGI (786-0 renal): > 100 µM; TGI (CCRF-CEM leukemia): > 100 µM; TGI (SK-OV-3 ovarian): > 100 µM; TGI (KM12 colon): > 100 µM; TGI (LXFL 529 NSCLC): > 100 µM; TGI (NCI-H522 lung): > 100 µM; TGI (HL-60(TB) leukemia): > 100 µM; TGI (HCT-15 colon): > 100 µM; TGI (SW-620 colon): > 100 µM; TGI (HOP-62 NSCLC): > 100 µM
